Data taken from ChEMBL document CHEMBL1795236, “Design and synthesis of protein-protein interaction mimics as Plasmodium falciparum cysteine protease, falcipain-2 inhibitors” (Eur J Med Chem, 2011).
Activity calls are given as the source filed them. The calls are words filed in the database; no cut-off is given here. Peptide text beside a SMILES is read from it.

Legend:
Plasmodium falciparum [1] = assay: Inhibition of Plasmodium falciparum recombinant falcipain 2 using fluorogenic ZFR-AMC substrate at 5 uM after 30 mins by fluorimetric assay
Plasmodium falciparum [2] = assay: (§1) Inhibition of Plasmodium falciparum recombinant refolded falcipain 2 activity using ZFR-AMC as a substrate after 30 mins by fluorimetric assay
Plasmodium falciparum [3] = assay: Antimalarial activity against Plasmodium falciparum infected in human RBC assessed as clumps of malarial pigment at 200 nM after 48 hrs by Giemsa staining based microscopy; type: functional, organism-based
Plasmodium falciparum [4] = assay: Antimalarial activity against Plasmodium falciparum infected in human RBC assessed as abnormal schizonts at 200 nM after 48 hrs by Giemsa staining based microscopy; type: functional, organism-based
[5] = as §1
Plasmodium falciparum [6] = assay: Antimalarial activity against Plasmodium falciparum infected in human RBC assessed as swollen food vacuole at early trophozoite stage at 200 nM after 48 hrs by Giemsa staining based microscopy; type: functional, organism-based

| inhibition (Plasmodium falciparum [1]) [%] | inhibition (Plasmodium falciparum [2]) | Molecule | Activity (Plasmodium falciparum [3]) | Activity (Plasmodium falciparum [4]) | Ki [5] [nM] | Activity (Plasmodium falciparum [6]) |
| --- | --- | --- | --- | --- | --- | --- |
| 39 | – | CC[C@H](C)[C@H](NC(=O)CNC(=O)[C@H](CO)NC(=O)[C@@H](NC(=O)[C@H](CC(C)C)NC(=O)[C@H](CCC(N)=O)NC(=O)[C@@H]1CSSC[C@H](NC(=O)[C@@H]2CCCN2C(=O)[C@H](C)NC(=O)CNC(=O)[C@H](CC(C)C)NC(=O)[C@H](CC(C)C)NC(=O)[C@@H](N)CCCNC(=N)N)C(=O)NCCCC(=O)N1)C(C)C)C(N)=O (HELM PEPTIDE1{R.L.L.G.A.P.C.[O=C(CCCN[*:1])[*:2]].C.Q.L.V.S.G.I.[am]}$PEPTIDE1,PEPTIDE1,7:R3-9:R3$$$V2.0) | – | – | – | – |
| – | Active | CC(=O)N[C@@H](CC(C)C)C(=O)N[C@@H](CC(C)C)C(=O)N[C@H](C=O)CCCNC(=N)N | – | – | – | – |
| 32 | – | CC[C@H](C)[C@H](NC(=O)CNC(=O)[C@H](CO)NC(=O)[C@@H](NC(=O)[C@H](CC(C)C)NC(=O)[C@H](CCC(N)=O)NC(=O)CCCNC(=O)[C@@H]1CCCN1C(=O)[C@H](C)NC(=O)CNC(=O)[C@H](CC(C)C)NC(=O)[C@H](CC(C)C)NC(=O)[C@@H](N)CCCNC(=N)N)C(C)C)C(=O)NCCC(=O)NCCC(=O)N1CCC[C@H]1C(=O)N[C@@H](Cc1c[nH]c2ccccc12)C(N)=O (HELM PEPTIDE1{R.L.L.G.A.P.[O=C(CCCN[*:1])[*:2]].Q.L.V.S.G.I.[bAla].[bAla].P.W.[am]}$$$$V2.0) | – | – | – | – |
| 39 | – | CC[C@H](C)[C@H](NC(=O)CNC(=O)[C@H](CO)NC(=O)[C@@H](NC(=O)[C@H](CC(C)C)NC(=O)[C@H](CCC(N)=O)NC(=O)[C@@H]1CSSC[C@H](NC(=O)[C@@H]2CCCN2C(=O)[C@H](C)NC(=O)CNC(=O)[C@H](CC(C)C)NC(=O)[C@H](CC(C)C)NC(=O)[C@@H](N)CCCNC(=N)N)C(=O)NCCCC(=O)N1)C(C)C)C(=O)NCCC(=O)NCCC(=O)N1CCC[C@H]1C(=O)N[C@@H](Cc1c[nH]c2ccccc12)C(N)=O (HELM PEPTIDE1{R.L.L.G.A.P.C.[O=C(CCCN[*:1])[*:2]].C.Q.L.V.S.G.I.[bAla].[bAla].P.W.[am]}$PEPTIDE1,PEPTIDE1,7:R3-9:R3$$$V2.0) | – | – | – | – |
| – | Active | CC(C)C[C@H](NC(=O)[C@H]1O[C@@H]1C(=O)O)C(=O)NCCCCN=C(N)N | – | – | – | – |
| 10 | – | Ac-RQLVSGI-NH2 | – | – | – | – |
| 44 | – | CC[C@H](C)[C@H](NC(=O)CNC(=O)[C@H](CO)NC(=O)[C@@H](NC(=O)[C@H](CC(C)C)NC(=O)[C@H](CCC(N)=O)NC(=O)CCCNC(=O)[C@@H]1CCCN1C(=O)[C@H](C)NC(=O)CNC(=O)[C@H](CC(C)C)NC(=O)[C@H](CC(C)C)NC(=O)[C@@H](N)CCCNC(=N)N)C(C)C)C(N)=O (HELM PEPTIDE1{R.L.L.G.A.P.[O=C(CCCN[*:1])[*:2]].Q.L.V.S.G.I.[am]}$$$$V2.0) | Active | Active | – | Active |
| 49 | – | CC[C@H](C)[C@H](NC(=O)CNC(=O)[C@H](CO)NC(=O)[C@@H](NC(=O)[C@H](CC(C)C)NC(=O)[C@H](CCC(N)=O)NC(=O)[C@H](CCCNC(=N)N)NC(=O)CCCNC(=O)[C@@H](NC(=O)[C@@H]1CCCN1C(=O)[C@H](C)NC(=O)CNC(=O)[C@H](CC(C)C)NC(=O)[C@H](CC(C)C)NC(=O)[C@@H](N)CCCNC(=N)N)C(C)C)C(C)C)C(=O)NCCC(=O)NCCC(=O)N1CCC[C@H]1C(=O)N[C@@H](Cc1c[nH]c2ccccc12)C(N)=O (HELM PEPTIDE1{R.L.L.G.A.P.V.[O=C(CCCN[*:1])[*:2]].R.Q.L.V.S.G.I.[bAla].[bAla].P.W.[am]}$$$$V2.0) | Active | Active | – | Active |
| 5 | – | H-RLLGAPV-NH2 | Active | Active | – | Active |
| 39 | – | CC[C@H](C)[C@H](NC(=O)CNC(=O)[C@H](CO)NC(=O)[C@@H](NC(=O)[C@H](CC(C)C)NC(=O)[C@@H]1CSSC[C@H](NC(=O)[C@H](C)NC(=O)CNC(=O)[C@H](CC(C)C)NC(=O)[C@H](CC(C)C)NC(=O)[C@@H](N)CCCNC(=N)N)C(=O)NCCCC(=O)N1)C(C)C)C(N)=O (HELM PEPTIDE1{R.L.L.G.A.C.[O=C(CCCN[*:1])[*:2]].C.L.V.S.G.I.[am]}$PEPTIDE1,PEPTIDE1,6:R3-8:R3$$$V2.0) | – | – | – | – |
| 57 | – | CC[C@H](C)[C@H](NC(=O)CNC(=O)[C@H](CO)NC(=O)[C@@H](NC(=O)[C@H](CC(C)C)NC(=O)[C@H](CCC(N)=O)NC(=O)[C@H](CCCNC(=N)N)NC(=O)CCCNC(=O)[C@@H](NC(=O)[C@@H]1CCCN1C(=O)[C@H](C)NC(=O)CNC(=O)[C@H](CC(C)C)NC(=O)[C@H](CC(C)C)NC(=O)[C@@H](N)CCCNC(=N)N)C(C)C)C(C)C)C(N)=O (HELM PEPTIDE1{R.L.L.G.A.P.V.[O=C(CCCN[*:1])[*:2]].R.Q.L.V.S.G.I.[am]}$$$$V2.0) | Active | Active | 2500 | Active |

| Molecule | inhibition (Plasmodium falciparum [1]) [%] | inhibition (Plasmodium falciparum [2]) | Activity (Plasmodium falciparum [3]) | Activity (Plasmodium falciparum [4]) | Ki [5] [nM] | Activity (Plasmodium falciparum [6]) |
| --- | --- | --- | --- | --- | --- | --- |
| CC[C@H](C)[C@H](NC(=O)CNC(=O)[C@H](CO)NC(=O)[C@@H](NC(=O)[C@H](CC(C)C)NC(=O)[C@H](CCC(N)=O)NC(=O)[C@H](CCCNC(=N)N)NC(=O)[C@H]1CC[C@@H](NC(=O)[C@@H](NC(=O)[C@@H]2CCCN2C(=O)[C@H](C)NC(=O)CNC(=O)[C@H](CC(C)C)NC(=O)[C@H](CC(C)C)NC(=O)[C@@H](N)CCCNC(=N)N)C(C)C)CC1)C(C)C)C(=O)NCCC(=O)NCCC(=O)N1CCC[C@H]1C(=O)N[C@@H](Cc1c[nH]c2ccccc12)C(N)=O (HELM PEPTIDE1{R.L.L.G.A.P.V.[O=C([C@H]1CC[C@@H](N[*:1])CC1)[*:2]].R.Q.L.V.S.G.I.[bAla].[bAla].P.W.[am]}$$$$V2.0) | 60 | – | Active | Active | 2500 | Active |
| CC[C@H](C)[C@H](NC(=O)CNC(=O)[C@H](CO)NC(=O)[C@@H](NC(=O)[C@H](CC(C)C)NC(=O)[C@H](CCC(N)=O)NC(=O)[C@H]1CC[C@@H](NC(=O)[C@@H]2CCCN2C(=O)[C@H](C)NC(=O)CNC(=O)[C@H](CC(C)C)NC(=O)[C@H](CC(C)C)NC(=O)[C@@H](N)CCCNC(=N)N)CC1)C(C)C)C(=O)NCCC(=O)NCCC(=O)N1CCC[C@H]1C(=O)N[C@@H](Cc1c[nH]c2ccccc12)C(N)=O (HELM PEPTIDE1{R.L.L.G.A.P.[O=C([C@H]1CC[C@@H](N[*:1])CC1)[*:2]].Q.L.V.S.G.I.[bAla].[bAla].P.W.[am]}$$$$V2.0) | 57 | – | Active | Active | – | Active |
| CC[C@H](C)[C@H](NC(=O)CNC(=O)[C@H](CO)NC(=O)[C@@H](NC(=O)[C@H](CC(C)C)NC(=O)[C@H](CCC(N)=O)NC(=O)[C@H]1CC[C@@H](NC(=O)[C@@H]2CCCN2C(=O)[C@H](C)NC(=O)CNC(=O)[C@H](CC(C)C)NC(=O)[C@H](CC(C)C)NC(=O)[C@@H](N)CCCNC(=N)N)CC1)C(C)C)C(N)=O (HELM PEPTIDE1{R.L.L.G.A.P.[O=C([C@H]1CC[C@@H](N[*:1])CC1)[*:2]].Q.L.V.S.G.I.[am]}$$$$V2.0) | 50 | – | Active | Active | – | Active |
| CC[C@H](C)[C@H](NC(=O)CNC(=O)[C@H](CO)NC(=O)[C@@H](NC(=O)[C@H](CC(C)C)NC(=O)[C@H](CCC(N)=O)NC(=O)[C@H](CCCNC(=N)N)NC(=O)[C@H]1CC[C@@H](NC(=O)[C@@H](NC(=O)[C@@H]2CCCN2C(=O)[C@H](C)NC(=O)CNC(=O)[C@H](CC(C)C)NC(=O)[C@H](CC(C)C)NC(=O)[C@@H](N)CCCNC(=N)N)C(C)C)CC1)C(C)C)C(N)=O (HELM PEPTIDE1{R.L.L.G.A.P.V.[O=C([C@H]1CC[C@@H](N[*:1])CC1)[*:2]].R.Q.L.V.S.G.I.[am]}$$$$V2.0) | 63 | – | Active | Active | 2000 | Active |
